# Legend:
# [1] = test system: rabbit ear wound; assay: Histopathology of rabbit ear wound (neovascularization, fibrosis, re-epithelialization); format: in vivo, New Zealand white rabbits; set-up: key to Total Score: aggregated total of severity grades for microscopic findings; key to Neovascularization / Re-epithelialization: five-step severity grade (minimal, mild, moderate, marked, severe); conditions: intradermal 1%; for average total score of test wounds lower than untreated wounds by: difference to untreated control; for angiogenesis / neovascularization compared with untreated wounds (words) / fibrosis compared with untreated wounds (words): histopathology; for scar formation compared with control sites: overall; for Total Score / Fibrosis/Collagen / Neovascularization / Re-epithelialization: treated mean, Day 43; for Total Score: aggregation of microscopic findings; for Fibrosis/Collagen / Neovascularization / Re-epithelialization: histology severity grade
# Protocol: (§1) The objective of this study was to examine the effect of test compounds on wound healing and TGF beta expression after dermal injury in a rabbit ear hypertrophic scar model.
# (§2) In New Zealand white rabbits, maintained under a surgical plane of anesthesia, trauma stimulation of the skin on the ventral surface of both ears is initiated on Day 1. Trauma sites are evaluated on Days 8, 15, 22, 29, 36, and 43. On days 15 and 29, each site is dosed with test compounds (e.g., 1% w/w, 100 μl) by intradermal or intralesional injections.
# At necropsy, each treatment site was harvested and preserved for hematoxylin and […] and Mason's trichrome stainings. Each lesion was examined histologically and graded for neovascularization, fibrosis and re-epithelialization using a five-step/severity grading system (minimal, mild, moderate, marked, and severe). The average total score is an aggregation of these microscopic findings relating to an inflammatory response.
# [2] = test system: LL37-induced inflammation; assay: LL37-induced dermal inflammation model in mice, histopathology and CD4/CD8 immunostaining; format: in vivo; conditions: intradermal LL37 induction, single intradermal injection 1.6 mg, FIG. 2
# Protocol: (§3) In our study, mice were injected subcutaneously with 40 μL of LL-37 (3.3 mg/mL) to induce inflammatory reactions. Immediately following the LL-37 injection, axitinib, nintedanib, and lenvatinib were individually administered as a single intradermal injection (1.6 mg). LL-37 injection was repeated every 12 hours for a total of 4 injections. Endotoxin-free water and dexamethasone (3 mg/kg by intraperitoneal injection, twice), respectively, were used as negative and positive control groups.
# At 48 hours after the initial LL-37 injection, the dorsal skin was photographed, and the severity of skin lesions were scored for redness and measured for areas of involvement.
# (§4) Mice were then anaesthetized, and tissue samples of lesion sites were excised and fixed for H&E stainings and immunohistochemical analysis. Markers for inflammation (CD4 and CD8) were determined using specific antibodies. TGF beta levels are measured by mRNA expression using qPCR.
# The tissue samples were analyzed for inflammation characteristics. Histopathology endpoints included inflammation, and CD4+ and CD8+ T-lymphocyte immunostaining. For inflammation scores, tissues were examined histologically and scored for inflammatory cell infiltrate.
# [3] = test system: TGF-beta 1; assay: Dermal TGFb1 levels (ELISA) after linear incisional wound in minipigs; format: in vivo, Gottingen Minipigs; conditions: minipig incisional wound, approximately 16 mg intradermal once, biopsies days 4, 7, 9, ELISA, FIG. 5
# Excerpt: The purpose of this study was to evaluate the topical effects of axitinib, nintedanib, sorafenib and lenvatinib when administered via intradermal injection to the dorsal skin along linear incisions of minipigs. Linear incisional wound was made to elicit inflammatory and wound healing process in the skin. After dosing, animals were observed postdose for 9 days to assess the levels of TGFb1 expressions in the skin.
# Three male Gottingen Minipigs® dosed once via intradermal injection along the edges of each of the linear incision wound sites for each animal (wounds on the dorsum, perpendicular to the spine, approximately 3 cm in length and 3 cm distance from the spine). Each incisional wound received approximately 16 mg of the test compound intradermally once along both sides of the linear wound.
# On days of 4, 7, and 9 post-dosing, one 4 mm dermal punch biopsy was collected for each incisional wound and processed for TGF-beta 1 analysis with ELISA, using a commercial kit (e.g., the kit from Thermo Fisher or other vendors).
# [4] = test system: TGF beta1 mRNA; assay: TGF beta1 mRNA expression (qRT-PCR) in rabbit ear hypertrophic scar model; format: in vivo, New Zealand white rabbits; conditions: 1% w/w 100 μl intradermal on days 15 and 29, Day 43, FIG. 6
# Protocol: as §1, §2
# Animals are euthanized on Day 43, and the trauma sites are harvested and frozen for TGF beta analysis using quantitative RT-PCR (qRT-PCR) (e.g., A. K. Johnson et al., Dev. Comp. Immunol., 2006; 30(5): 473-84). TGF beta1 mRNA expression levels in treated trauma samples are compared to the expression level in the untreated trauma sample.
# [5] = test system: TGFb1 mRNA; assay: TGFb1 mRNA expression (qPCR) in skin of mice after LL-37 challenge; format: in vivo; conditions: LL37 induced, single intradermal injection 1.6 mg, FIG. 1
# Protocol: as §3, §4
SMILES,average total score of test wounds lower than untreated wounds by [1],angiogenesis / neovascularization compared with untreated wounds (words) [1],fibrosis compared with untreated wounds (words) [1],angiogenesis / neovascularization compared with untreated wounds (words) ([1]; listed as Nintedanib),fibrosis compared with untreated wounds (words) ([1]; listed as Nintedanib),scar formation compared with control sites [1],Total Score [1],Fibrosis/Collagen [1],Neovascularization [1],Re-epithelialization [1],inflammation score (inflammatory cell infiltrate) [2],suppression of TGF beta 1 expression in skin [3],mean folds of TGF beta mRNA expression vs untreated wound sample [4],TGFb1 mRNA expression relative to LL37 alone (without treatment) ([5]; 48 hours) [%],TGFb-1 mRNA expression among all treatment groups [5],angiogenesis / neovascularization compared with untreated wounds (words) ([1]; listed as Sorafenib)
COC(=O)c1ccc2c(c1)NC(=O)/C2=C(\Nc1ccc(N(C)C(=O)CN2CCN(C)CC2)cc1)c1ccccc1 [nintedanib],1.5,decreased angiogenesis,decreased angiogenesis and fibrosis,much less neovascularization,about the same fibrosis,less scar formation,4.5,3,1,0.5,prominent reductions,very effective,lower than the expression level in the untreated wound sample,–,–,–
COc1cc2nccc(Oc3ccc(NC(=O)NC4CC4)c(Cl)c3)c2cc1C(N)=O [lenvatinib],–,–,–,–,–,–,–,–,–,–,prominent reductions,very effective,lower than the expression level in the untreated wound sample,79,lowest TGFb-1 mRNA expression,–
CNC(=O)c1cc(Oc2ccc(NC(=O)Nc3ccc(Cl)c(C(F)(F)F)c3)cc2)ccn1 [sorafenib],–,do not show any reduction in angiogenesis,"similar, or increased fibrosis",–,–,does not appear to have reduced scar formation,5.8,2.5,3,0.3,–,not as effective,lower than the expression level in the untreated wound sample,–,–,slightly increased neovascularization
CNC(=O)c1ccccc1Sc1ccc2c(/C=C/c3ccccn3)n[nH]c2c1 [axitinib],1.4,–,–,–,–,–,4.6,3.3,1,0.3,–,–,–,–,–,–
